Patent US20050260126A1 (priority 2002, published 2005)

What was measured:
[1] = system: abnormal prion proteins in ScN2a cells with persistent infection of scrapie; assay: cells; assay type: cell-based, mouse; conditions: for IC50: Mus musculus, ScN2a, 96 h, read-out: Inhibitory effects on producing abnormal prion protein IC50; for Inhibitory effects on producing abnormal prion proteins (in words): ScN2a cells
ScN2a cells = conditions: for Concentration of inhibiting cell proliferation TC: mouse

Structure (SMILES)	IC50 [1]	Concentration of inhibiting cell proliferation TC (ScN2a cells)	Inhibitory effects on producing abnormal prion proteins (in words) [1]	TC and safety concentration margin (in words) (ScN2a cells)
C(=C\c1cncs1)/c1nc2ccccc2o1 [BF-234]	40 nM	>10 µM	–	–
Nc1ccc(-c2nc3cc(Oc4ccc5[nH]c(-c6ccc(N)cc6)nc5c4)ccc3[nH]2)cc1 [Compound N-241]	10 nM	10 µM	–	–
Nc1ccc(-c2nc3cc(Cc4ccc5oc(-c6ccc(N)cc6)nc5c4)ccc3o2)cc1 [Compound N-221]	1 nM	>10 µM	highly inhibitory effects	–
CN(C)c1ncc(-c2ccc3ccccc3n2)o1 [BF-221, 2-(2-dimethylamino-oxazol-5-yl)quinoline]	80 nM	>10 µM	–	–
Nc1ccc(C(=O)Nc2ccc(-c3nc4cc(N)ccc4[nH]3)cc2)cc1 [Compound N-243, 4-(5-aminobenzimidazol-2-yl)-N-(4-amino-benzoyl)aniline]	1 nM	>10 µM	highly inhibitory effects	–
Nc1ccc(-c2nc3cc(N)ccc3o2)cc1 [Compound N-225, 2-(4-aminophenyl)-5-aminobenzoxazole]	100 nM	>10 µM	–	–
Nc1ccc(-c2nc3cc(N)ccc3s2)c(O)c1 [Compound N-232, 2-(4-amino-2-hydroxy-phenyl)-5-amino-benzothiazole]	1 nM	10 µM	highly inhibitory effects	–
Nc1ccc(-c2nc3ccc(N)c(Cl)c3[nH]2)cc1 [Compound N-234, 2-(4-aminophenyl)-7-chloro-6-amino-benzimidazole]	100 nM	>10 µM	–	–
Clc1ccc2nc(-c3cccs3)cn2c1 [Compound N-471, 2-(2-thienyl)-6-chloro imidazo[1,2-a]pyridine]	1000 nM	≧100 μM	–	–
Clc1ccc2nc(-c3ccccc3)cn2c1 [Compound N-464, 2-phenyl-6-chloro-imidazo[1,2-a]pyridine]	100 nM	100 µM	–	–
Clc1ccc(/C=C/c2nc3ccccc3s2)c(Cl)c1 [Compound N-452, 2-[2-(2,4-dichloro-phenyl)ethenyl]-benzothiazole]	100 nM	100 µM	–	–
CN(C)c1ccc2cc(-c3nc4cc(F)ccc4o3)cnc2c1 [BF-161, 5-fluoro-2-(7-dimethyl-aminoquinolin-3-yl)-benzoxazole]	10 nM	100 µM	–	–
Cc1cccc(/C=C/c2nc3cc(C)ccc3s2)c1 [Compound N-439, 2-[2-(3-methylphenyl)-ethenyl]-5-methyl-benzothiazole]	10 nM	100 µM	–	–
Nc1ccc(C(=O)Nc2ccc(-c3nc4cc(Cl)c(NC(=O)c5ccc(N)cc5)cc4[nH]3)cc2)cc1 [Compound N-246, 4-[6-(N′-(4-amino-benzoyl)amino)-5-chlorobenzimidazol-2-yl]-N-(4-aminobenzoyl)aniline]	1 nM	10 µM	highly inhibitory effects	–
Cc1ccn2cc(-c3ccccc3)nc2c1 [Compound N-463, 2-phenyl-7-methyl-imidazo[1,2-a]pyridine]	100 nM	100 µM	–	–
Nc1cccc(-c2cn3cc(Cl)ccc3n2)c1 [Compound N-475, 2-(3-aminophenyl)-6-chloroimidazo[1,2-a]pyridine]	100 nM	100 µM	–	–

Structure (SMILES)	IC50 [1]	Concentration of inhibiting cell proliferation TC (ScN2a cells)	Inhibitory effects on producing abnormal prion proteins (in words) [1]	TC and safety concentration margin (in words) (ScN2a cells)
COc1ccc(/C=C/c2nc3ccccc3s2)cc1 [Compound N-455, 2-[2-(4-methoxyphenyl)-ethenyl]benzothiazole]	10 nM	100 µM	–	–
Nc1ccccc1/C=C/c1nc2ccccc2[nH]1 [Compound N-402, 2-[2-(2-aminophenyl)ethenyl]benzimidazole]	50 nM	50 µM	–	–
C/C(=C\c1ccc(N)cc1)c1nc2ccccc2[nH]1 [Compound N-442, 4-[2-(2-benzimidazolyl)-2-methylethenyl]benzenamine]	100 nM	100 µM	–	–
Nc1ccc(-c2nc3cc(Oc4ccc(Oc5ccc6[nH]c(-c7ccc(N)cc7)nc6c5)cc4)ccc3[nH]2)cc1 [Compound N-244]	10 nM	>10 µM	–	–
CN(C)c1ccc(/C=C/c2nccn2C)cc1 [BF-138, 2-[2-(4-dimethylamino-phenyl)ethenyl]-1-methylimidazole]	100 nM	100 µM	–	–
CN(C)c1ccc(/C=C/c2nc3cc([N+](=O)[O-])ccc3o2)cc1 [BF-135, 2-(4-dimethylamino) styryl-5-nitrobenzoxazole]	1 nM	100 µM	highly inhibitory effects	higher TCs, therefore higher safety concentration margins
Ic1ccc2nc(-c3ccccc3)cn2c1 [Compound N-469, 2-phenyl-6-iodo-imidazo[1,2-a]pyridine]	100 nM	≧100 μM	–	–
Nc1ccc(-c2nc3ccc(N)cc3[nH]2)cc1 [Compound N-245, 2-(4-aminophenyl)-5-aminobenzimidazole]	100 nM	10 µM	–	–
Cc1ccn2c(Br)c(-c3ccccc3)nc2c1 [Compound N-467, 2-phenyl-3-bromo-7-methylimidazo[1,2-a]pyridine]	1000 nM	100 µM	–	–
Cc1ccc2nc(-c3ccc(NC(=O)Nc4cccc(Cl)c4)cc3)sc2c1 [HT-043, 4-(6-methylbenzothiazol-2-yl)-N-(3-chlorophenyl-aminocarbonyl)aniline]	100 nM	>10 µM	–	–
Nc1ccc(-c2nc3ccc(O)cc3s2)cc1 [BF-160, 2-(4-aminophenyl)-6-hydroxybenzothiazole]	10 nM	10 µM	–	–
Cc1cc(N)cc2nc(-c3ccc(N)c(Cl)c3)[nH]c12 [Compound N-240, 2-(4-amino-3-chloro-phenyl)-5-amino-7-methylbenzimidazole]	100 nM	10 µM	–	–
Cc1ccc2nc(-c3ccc(NC(=O)c4ccc(Cl)cc4)cc3)sc2c1 [HT-041, 4-(6-methylbenzothiazol-2-yl)-N-(4-chloro-benzoyl)aniline]	10 nM	>10 µM	–	–
Nc1ccc(-c2cn3ccccc3n2)cc1 [Compound N-461, 2-(4-aminophenyl)-imidazo[1,2-a]pyridine]	100 nM	>10 µM	–	–
Cc1ccc2nc(-c3sc(-c4ccccc4)nc3C)cn2c1 [Compound N-473, 2-(2-phenyl-4-methylthiazol-5-yl)-6-methyl-imidazo[1,2-a]pyridine]	1000 nM	100 µM	–	–
Clc1ccc2nc(-c3cc(-c4ccccc4)no3)cn2c1 [Compound N-465, 2-(3-phenylisoxazol-5-yl)-6-chloroimidazo [1,2-a]pyridine]	10 nM	100 µM	–	–
